Data on three compounds can be found in patent US20250270513A1, “METHOD FOR PRODUCING CULTURED TISSUE, AND PREPARATION FOR EXTERNAL APPLICATION” (National University Corporation Ehime University, priority 2019, published 2025).

Assay [1] deals with human normal skin keratinocytes on collagen gel containing normal human skin fibroblasts (NHDF). The assay can be described thus: Three-dimensional cultured skin on a sugar-containing dermal cell structure (Test Example 1). It is filed as cell-based. The conditions noted are these: 30 mg/mL sugar added instead of trehalose to collagen gel containing fibroblasts. On the procedure: Subsequently, about 1 mL of the gel obtained was poured into a transwell-collagen coated insert (catalog number: 3492, manufactured by Costar; pore size: 3.0 μm, surface area: 4.67 cm^2), which is a cell culture insert, and allowed to stand in an incubator for 5 minutes or more. 5 mL of DMEM containing 10 v/v % FCS and 1 v/v % ABAM (Antibiotics-Antimycotic solution, 100×, manufactured by ThermoFisher Scientific Inc.) in which normal human skin fibroblasts (NHDF, manufactured by Cambrex Corporation) were suspended at a cell density of 5×10^5 cells/mL was added to 29 mL of the gel solution I. About 3.5 mL of a gel solution containing the cells was added to the cell culture insert, and the mixture was allowed to stand in a 37° C. incubator for 30 minutes to gel.
• (2) Next, the collagen gel (layered dermal cell structure) containing NHDF was pre-cultured for 5 days using a DMEM medium containing 50 μg/ml ascorbic acid, 10 v/v % FCS, and 1 v/v % ABAM. Next, human normal skin keratinocytes suspended in MCDB medium were seeded on the collagen gel surface so as to be 1.28×10^5 cells/cm^2, and a medium obtained by mixing equal amounts of MCDB Type-II medium (Growth Medium 2 in JP-B2-3066624) and EGM was added to an external liquid of the cell culture insert and the inside of the insert, followed by culturing at 37° C. for 2 days.
• (3) The medium was replaced with a cornification medium (CM medium), and the cell culture insert was placed such that a porous membrane of the cell culture insert was located at a gas-liquid interface of the cornification medium. In this state, the cells were subjected to gas-liquid interface culture at 37° C. for 7 to 14 days to induce differentiation, thereby obtaining three-dimensional cultured skin. The medium was replaced every two days from the start of the culture.

Assay [2] concerns EREG, ARG2, CCL2, IL1RN, PGF, SPP1, VEGFA, AREG and DPT mRNA. The assay can be described thus: qPCR of genes in monolayer fibroblasts, 24 hours (Test Example 3-3). The assay is classed as cell-based, human. The conditions noted are these: group treated with hyaluronic acid oligosaccharides (HA oligo). On the procedure:
In the same manner as in Test Example 3-2, NHDF was cultured in 1% FCS and 1% ABAM-containing DMEM medium containing 0, 30, or 100 mg/mL trehalose or hyaluronic acid oligosaccharide 4mer (HA4) (product code 11006, manufactured by Cosmo Bio Co., Ltd.) for 24 hours, and RNA was recovered from the cells. Also, as a control, RNA was recovered from fibroblasts before treatment (0 h in FIG. 9). The obtained sample was subjected to the same operation as in Test Example 3-2, and qPCR for genes EREG, ARG2, CCL2, IL1RN, PGF, SPP1, VEGFA, AREG and DPT was performed. GAPDH was used as a reference gene.

As for `O=C(CO)[C@@H](O)[C@H](O)[C@H](O)CO` [fructose, reference compound], in assay [1], the “formation of epithelial tissue layer” value is reported as “no epithelial tissue layer was formed”.
The same measure, in the same setting: under `OC[C@H]1O[C@@](CO)(O[C@H]2O[C@H](CO)[C@@H](O)[C@H](O)[C@H]2O)[C@@H](O)[C@@H]1O` [sucrose, reference compound] stands “no epithelial tissue layer was formed”.
On to “hyaluronic acid oligosaccharide 4mer [hyaluronic acid oligosaccharides, reference compound]”, for which the “increase in mRNA expression level of genes EREG, ARG2, CCL2, IL1RN, PGF, SPP1, VEGFA, AREG and DPT” value in assay [2] is “not observed”.
